Results from ChEMBL document CHEMBL3425423, “Hydroxy tricyclic 1,5-naphthyridinone oxabicyclooctane-linked novel bacterial topoisomerase inhibitors as broad-spectrum antibacterial agents-SAR of RHS moiety (Part-3)” (Bioorg Med Chem Lett, 2015).
In brackets after ≈: the same amount, converted by molar mass.

How the values were obtained:
Assay type in all cases: functional
Staphylococcus aureus [1] = assay: Antibacterial activity against Staphylococcus aureus Smith; conditions: Staphylococcus aureus, Smith; read-out: MIC
Streptococcus pneumoniae = assay: Antibacterial activity against Streptococcus pneumoniae IID554; conditions: Streptococcus pneumoniae, IID554; read-out: MIC
Enterococcus faecalis = assay: Antibacterial activity against Enterococcus faecalis ATCC 29212; conditions: Enterococcus faecalis, ATCC 29212; read-out: MIC
Escherichia coli = assay: Antibacterial activity against Escherichia coli ATCC 25922; conditions: Escherichia coli, ATCC 25922; read-out: MIC
Acinetobacter baumannii = assay: Antibacterial activity against Acinetobacter baumannii IID876; conditions: Acinetobacter baumannii, IID876; read-out: MIC
Pseudomonas aeruginosa = assay: Antibacterial activity against Pseudomonas aeruginosa PAO1; conditions: Pseudomonas aeruginosa, PAO1; read-out: MIC
Staphylococcus aureus [2] = assay: Ratio of MIC for quinolone-resistant Staphylococcus aureus MS5935 to MIC for quinolone-sensitive Staphylococcus aureus
Enterococcus faecium = assay: Antibacterial activity against VanA-type vancomycin-resistant Enterococcus faecium A2373; conditions: Enterococcus faecium, A2373; read-out: MIC
Moraxella catarrhalis = assay: Antibacterial activity against Moraxella catarrhalis ATCC 25238; conditions: Moraxella catarrhalis, ATCC 25238; read-out: MIC

| SMILES | MIC (Staphylococcus aureus [1]) [µg/mL] | MIC (Streptococcus pneumoniae) [µg/mL] | MIC (Enterococcus faecalis) [µg/mL] | MIC (Escherichia coli) [µg/mL] | MIC (Acinetobacter baumannii) [µg/mL] | MIC (Pseudomonas aeruginosa) [µg/mL] | Ratio (Staphylococcus aureus [2]) | MIC (Enterococcus faecium) [µg/mL] | MIC (Moraxella catarrhalis) [µg/mL] |
| --- | --- | --- | --- | --- | --- | --- | --- | --- | --- |
| O=c1ccc2ncc(F)c3c2n1C[C@@]3(O)CC12CCC(NCOc3cc(F)ccc3F)(CC1)CO2 | 1 (≈ 2.05 µM) | 2 (≈ 4.1 µM) | 16 (≈ 32.8 µM) | 32 (≈ 65.6 µM) | 4 (≈ 8.21 µM) | 64 (≈ 131 µM) | <4 | 32 (≈ 65.6 µM) | – |
| O=c1ccc2ncc(F)c3c2n1C[C@@]3(O)CC12CCC(NCc3cc(Cl)c4c(c3Cl)OCCO4)(CC1)CO2 | 0.5 (≈ 0.889 µM) | 0.25 (≈ 0.445 µM) | 4 (≈ 7.11 µM) | 32 (≈ 56.9 µM) | 32 (≈ 56.9 µM) | 32 (≈ 56.9 µM) | – | 16 (≈ 28.4 µM) | 2 (≈ 3.56 µM) |
| O=C1COc2ccc(CNC34CCC(C[C@]5(O)Cn6c(=O)ccc7ncc(F)c5c76)(CC3)OC4)cc2N1 | 1.5 (≈ 2.96 µM) | 1 (≈ 1.97 µM) | 4 (≈ 7.9 µM) | 6 (≈ 11.8 µM) | 8 (≈ 15.8 µM) | 16 (≈ 31.6 µM) | – | 16 (≈ 31.6 µM) | – |
| O=c1ccc2ncc(F)c3c2n1C[C@@]3(O)CC12CCC(NC/C=C/c3ccccc3)(CC1)CO2 | 0.125 (≈ 0.271 µM) | 0.5 (≈ 1.08 µM) | 4 (≈ 8.67 µM) | 32 (≈ 69.3 µM) | 4 (≈ 8.67 µM) | 64 (≈ 139 µM) | – | 8 (≈ 17.3 µM) | – |
| O=c1ccc2ncc(F)c3c2n1C[C@@]3(O)CC12CCC(NCc3ccc4c(n3)OCCO4)(CC1)CO2 | 2 (≈ 4.04 µM) | 2 (≈ 4.04 µM) | 8 (≈ 16.2 µM) | 32 (≈ 64.7 µM) | 32 (≈ 64.7 µM) | 32 (≈ 64.7 µM) | – | 32 (≈ 64.7 µM) | 32 (≈ 64.7 µM) |
| O=c1ccc2ncc(F)c3c2n1C[C@@]3(O)CC12CCC(NCc3ccc4c(c3)OCO4)(CC1)CO2 | 0.5 (≈ 1.04 µM) | 0.5 (≈ 1.04 µM) | 4 (≈ 8.34 µM) | 32 (≈ 66.7 µM) | 4 (≈ 8.34 µM) | 32 (≈ 66.7 µM) | – | 16 (≈ 33.4 µM) | 4 (≈ 8.34 µM) |
| O=c1ccc2ncc(F)c3c2n1C[C@@]3(O)CC12CCC(NCc3cc4c(cc3F)OCCO4)(CC1)CO2 | 0.25 (≈ 0.489 µM) | 0.5 (≈ 0.977 µM) | 2 (≈ 3.91 µM) | 32 (≈ 62.6 µM) | 8 (≈ 15.6 µM) | 32 (≈ 62.6 µM) | – | 8 (≈ 15.6 µM) | 8 (≈ 15.6 µM) |
| O=C1CSc2ccc(CNC34CCC(C[C@]5(O)Cn6c(=O)ccc7ncc(F)c5c76)(CC3)OC4)nc2N1 | 0.25 (≈ 0.477 µM) | 0.5 (≈ 0.955 µM) | 2 (≈ 3.82 µM) | 4 (≈ 7.64 µM) | 2 (≈ 3.82 µM) | 16 (≈ 30.6 µM) | – | 8 (≈ 15.3 µM) | – |
| O=c1ccc2ncc(F)c3c2n1C[C@@]3(O)CC12CCC(NC/C=C/c3ccc(F)cc3)(CC1)CO2 | 0.5 (≈ 1.04 µM) | 4 (≈ 8.34 µM) | 16 (≈ 33.4 µM) | 64 (≈ 133 µM) | 32 (≈ 66.7 µM) | 64 (≈ 133 µM) | – | 32 (≈ 66.7 µM) | – |
| O=c1ccc2ncc(F)c3c2n1C[C@@]3(O)CC12CCC(NCc3ncc4c(c3Cl)OCCO4)(CC1)CO2 | 2 (≈ 3.78 µM) | 1 (≈ 1.89 µM) | 8 (≈ 15.1 µM) | 32 (≈ 60.5 µM) | 32 (≈ 60.5 µM) | 32 (≈ 60.5 µM) | – | 32 (≈ 60.5 µM) | 32 (≈ 60.5 µM) |
| O=c1ccc2ncc(F)c3c2n1C[C@@]3(O)CC12CCC(NCc3ccc4c(n3)NCCO4)(CC1)CO2 | 2 (≈ 4.05 µM) | 1 (≈ 2.03 µM) | 8 (≈ 16.2 µM) | 32 (≈ 64.8 µM) | 8 (≈ 16.2 µM) | 32 (≈ 64.8 µM) | – | 16 (≈ 32.4 µM) | 4 (≈ 8.1 µM) |
| O=c1ccc2ncc(F)c3c2n1C[C@@]3(O)CC12CCC(NCc3ccc4c(c3)OCCO4)(CC1)CO2 | 0.12 (≈ 0.243 µM) | 0.25 (≈ 0.507 µM) | 2 (≈ 4.05 µM) | 16 (≈ 32.4 µM) | 4 (≈ 8.1 µM) | 32 (≈ 64.8 µM) | – | 4 (≈ 8.1 µM) | 0.5 (≈ 1.01 µM) |
| O=C1COc2cnc(CNC34CCC(C[C@]5(O)Cn6c(=O)ccc7ncc(F)c5c76)(CC3)OC4)cc2N1 | 4 (≈ 7.88 µM) | 4 (≈ 7.88 µM) | 8 (≈ 15.8 µM) | 16 (≈ 31.5 µM) | 32 (≈ 63.1 µM) | 32 (≈ 63.1 µM) | – | 32 (≈ 63.1 µM) | – |
| O=c1ccc2ncc(F)c3c2n1C[C@@]3(O)CC12CCC(NCc3ccc4c(c3)OC(F)(F)O4)(CC1)CO2 | 0.25 (≈ 0.485 µM) | 1 (≈ 1.94 µM) | 8 (≈ 15.5 µM) | 32 (≈ 62.1 µM) | 32 (≈ 62.1 µM) | 32 (≈ 62.1 µM) | – | 32 (≈ 62.1 µM) | 4 (≈ 7.76 µM) |
